Measured values published in PMC2033546, “Effects of somatostatin analogue RC-160 and bombesin/gastrin-releasing peptide antagonists on the growth of human small-cell and non-small-cell lung carcinomas in nude mice” (British Journal of Cancer, 1994).
Where no end group is shown, it is not given here. [ ]: non-standard residue; d: D form.

Assays:
[1] = test system: human SCLC cell line NCI-H69; assay: Growth of H69 SCLC xenografts in nude mice; type: in vivo, human (xenograft in male athymic nude mice)
From the text: (§1) Br. J. Cancer (1994). 70, 886 892 ? Macmillan Press Ltd.. […] Bombesin GRP antagonists. […] Lung carcinoma is the leading cause of cancer-related deaths in the western world. It is estimated that in 1992 there were approximately 168,000 new cases of lung cancer in the US and that about 146,000 deaths occurred from this disease (Boring et al., 1992). […] The growth factors such as bombesin/gastrin-releasing pep- tide (GRP), epidermal growth factor, (EGF), transforming growth factor a (TGF-x) and insulin-like growth factor I(IGF-I) appear to play a role in the proliferation and pro- gression of lung cancer (Cuttitta et al., 1985; Veale et al., 1987; Minuto et al., 1988; Siegfried & Owens, 1988; Macaulay et al., 1990; Tateishi et al., 1991; Damstrup et al., 1992; Sethi & Rozengurt, 1992; Rabiasz et al., 1992; Moody & Cuttitta, 1993). […] Tpi is 2,3,4,9-tetrahydro- Correspondence: A.V. Schally (151). VA Medical Center, 1601 Per- dido Street. New Orleans, LA 70146. USA. Received 1 March 1994; and in revised form 5 July 1994. Br. J. Cancer (1994), 70, 886-892 C Macmillan Press Ltd., 1994 PEPTIDE ANALOGUES IN LUNG CANCER 8U7 lH-pyrido [3,4bjindol-3-carboxylic acid, a conformationally constrained secondary amine derivate of tryptophan and Tac is thiazolidine-4-carboxylic acid. […] Animals Male athymic NCr nulmu nude mice, approximately 6 weeks old on arrival, were obtained from the NCI (Bethesda, MD, USA) and maintained under pathogen-limited conditions. Cell lines The human SCLC cell line NCI-H69, was obtained from the American Type Cell Culture (ATCC), Rockville, MD, USA and the non-SCLC cell line NCI-H157, from Dr H. Oie, NCI-Navy Medical Oncology Branch, Bethesda, MD, USA. These cell lines were cultured in RPMI-1640 medium supple- mented with 4 mM L-glutamine, 50 units ml-I penicilln G sodium, SOigml-' streptomycin sulphate, 0.125pgml-' amphotericin B and 10% fetal bovine serum at 3TC in a humidified 95% air/5% carbon dioxide atmosphere. CeLs were passaged weekly and routinely monitored for myco- plasma contamination using a detection kit (Boehringer- Mannheim, Mannheim, Germany). All culture media com- ponents were purchased from Gibco (Grand Island, NY, USA). Receptor assays Preparation of membranes for receptor studies was described previously (Halmos et al., 1993). Iodinated EGF and IGF-I were purchased from Amersham (Arlington Heights, IL, USA). Radioiodination of other peptides and receptor bind- ing of EGF, IGF-I, somatostatin and bombesin/GRP were performed as previously described (Srkalovic et al., 1989; Szepeshazi et al., 1992). Complete displacement assays on tumour membranes were done only once because of the shortage of tumour material. The LIGAND PC computerised curve-fitting programme of Munson and Rodbard (1980) was used to determine the types of receptor binding, dissociation constant (Kd) values, and the maximal binding capacity (BDj) of receptors. In order to determine the specificity of the binding sites for radiolabelled EGF, IGF-I, somatostatin and bombesin to lung cancer membranes, various structuraly related and unrelated peptides were tested for their ability to inhibit the binding of the tracers. Histological procedure The histological procedures were the same as described previously (Szepeshazi et al., 1991, 1992). The number of mitotic and apoptotic cells per 1,000 cells was determined, and the percentage area of necrosis in tumour sections was examined using the point-counting method (Szepeshazi et al., 1991, 1992), in which the crossing points of an ocular net that coincide with necrosis in various sections are counted. Radiommunoassays Serum levels of growth hormone were determined by double- antibody radioimmunoassay (RIA) using materials supplied by the National Hormone and Pituitary Program of the National Institute of Diabetes and Digestive and Kidney Diseases (NIDDK).

[2] = test system: EGF receptors in membranes of SCLC H69 tumours; assay: EGF receptor binding on H69 tumour membranes after in vivo treatment; parameters: species or system human
From the text: as §1, with “In order to determine the specificity of the binding sites for radiolabelled EGF, IGF-I, somatostatin and bombesin to lung cancer membranes, various structuraly related and unrelated peptides were tested for their ability to inhibit the binding of the tracers. Histological procedure The histological procedures were the same as described previously (Szepeshazi et al., 1991, 1992).” left out

[3] = test system: Bombesin/GRP receptors in membranes of SCLC H69 tumours; assay: Bombesin/GRP receptor binding on H69 tumour membranes after in vivo treatment; parameters: species or system human; conditions: Table IV, Experiment I (SCLC-H69); tumour membranes after in vivo treatment; control 420; done once
From the text: as §1, with “In order to determine the specificity of the binding sites for radiolabelled EGF, IGF-I, somatostatin and bombesin to lung cancer membranes, various structuraly related and unrelated peptides were tested for their ability to inhibit the binding of the tracers. Histological procedure The histological procedures were the same as described previously (Szepeshazi et al., 1991, 1992).” left out

human SCLC cell line H69 = assay: [3H]Thymidine incorporation assay in H69 cells; type: cell-based; conditions: for [3H]Thymidine incorporation: Table V, mean s.e.
From the text: as §1

[4] = Serum gastrin radioimmunoassay in nude mice; type: in vivo; conditions: both experiments, after chronic treatment, vs controls
[5] = test system: LNCaP prostatic cancer cells; conditions: LNCaP cells in culture; ref Gattani et al., 1990; cited from earlier work
From the text: (§2) Br. J. Cancer (1994). 70, 886 892 ? Macmillan Press Ltd..

[6] = test system: MIA PaCa-2 human pancreatic cancer cell line; conditions: ref Liebow et al., 1989; cited from earlier work
From the text: as §2

[7] = test system: IGF-I receptors in membranes of SCLC H69 tumours; assay: IGF-I receptor binding on H69 tumour membranes after in vivo treatment; parameters: species or system human; conditions: Table IV, Experiment I (SCLC-H69), control 294, done once
From the text: as §1, with “Receptor assays Preparation of membranes for receptor studies was described previously (Halmos et al., 1993). Iodinated EGF and IGF-I were purchased from Amersham (Arlington Heights, IL, USA). Radioiodination of other peptides and receptor bind- ing of EGF, IGF-I, somatostatin and bombesin/GRP were performed as previously described (Srkalovic et al., 1989; Szepeshazi et al., 1992). Complete displacement assays on tumour membranes were done only once because of the shortage of tumour material. The LIGAND PC computerised curve-fitting programme of Munson and Rodbard (1980) was used to determine the types of receptor binding, dissociation constant (Kd) values, and the maximal binding capacity (BDj) of receptors. In order to determine the specificity of the binding sites for radiolabelled EGF, IGF-I, somatostatin and bombesin to lung cancer membranes, various structuraly related and unrelated peptides were tested for their ability to inhibit the binding of the tracers. Histological procedure The histological procedures were the same as described previously (Szepeshazi et al., 1991, 1992).” left out

[8] = test system: IGF-I receptors in membranes of non-SCLC H157 tumours; assay: IGF-I receptor binding on H157 tumour membranes after in vivo treatment; parameters: species or system human
From the text: as §1, with “Receptor assays Preparation of membranes for receptor studies was described previously (Halmos et al., 1993). Iodinated EGF and IGF-I were purchased from Amersham (Arlington Heights, IL, USA). Radioiodination of other peptides and receptor bind- ing of EGF, IGF-I, somatostatin and bombesin/GRP were performed as previously described (Srkalovic et al., 1989; Szepeshazi et al., 1992). Complete displacement assays on tumour membranes were done only once because of the shortage of tumour material. The LIGAND PC computerised curve-fitting programme of Munson and Rodbard (1980) was used to determine the types of receptor binding, dissociation constant (Kd) values, and the maximal binding capacity (BDj) of receptors. In order to determine the specificity of the binding sites for radiolabelled EGF, IGF-I, somatostatin and bombesin to lung cancer membranes, various structuraly related and unrelated peptides were tested for their ability to inhibit the binding of the tracers. Histological procedure The histological procedures were the same as described previously (Szepeshazi et al., 1991, 1992).” left out

[9] = test system: EGF receptors in membranes of non-SCLC H157 tumours; assay: EGF receptor binding on H157 tumour membranes after in vivo treatment; parameters: species or system human
From the text: as §1, with “Receptor assays Preparation of membranes for receptor studies was described previously (Halmos et al., 1993). Iodinated EGF and IGF-I were purchased from Amersham (Arlington Heights, IL, USA). Radioiodination of other peptides and receptor bind- ing of EGF, IGF-I, somatostatin and bombesin/GRP were performed as previously described (Srkalovic et al., 1989; Szepeshazi et al., 1992). Complete displacement assays on tumour membranes were done only once because of the shortage of tumour material. The LIGAND PC computerised curve-fitting programme of Munson and Rodbard (1980) was used to determine the types of receptor binding, dissociation constant (Kd) values, and the maximal binding capacity (BDj) of receptors. In order to determine the specificity of the binding sites for radiolabelled EGF, IGF-I, somatostatin and bombesin to lung cancer membranes, various structuraly related and unrelated peptides were tested for their ability to inhibit the binding of the tracers. Histological procedure The histological procedures were the same as described previously (Szepeshazi et al., 1991, 1992).” left out

[10] = Serum growth hormone (GH) radioimmunoassay in nude mice; type: in vivo
From the text: Br. J. Cancer (1994). 70, 886 892 ? Macmillan Press Ltd.. […] Bombesin GRP antagonists. […] Lung carcinoma is the leading cause of cancer-related deaths in the western world. It is estimated that in 1992 there were approximately 168,000 new cases of lung cancer in the US and that about 146,000 deaths occurred from this disease (Boring et al., 1992). […] CeLs were passaged weekly and routinely monitored for myco- plasma contamination using a detection kit (Boehringer- Mannheim, Mannheim, Germany). […] The number of mitotic and apoptotic cells per 1,000 cells was determined, and the percentage area of necrosis in tumour sections was examined using the point-counting method (Szepeshazi et al., 1991, 1992), in which the crossing points of an ocular net that coincide with necrosis in various sections are counted. Radiommunoassays Serum levels of growth hormone were determined by double- antibody radioimmunoassay (RIA) using materials supplied by the National Hormone and Pituitary Program of the National Institute of Diabetes and Digestive and Kidney Diseases (NIDDK).

[11] = H69 SCLC xenografts, as compared with control group, RC-160 100 µg, RC-3950-II 20 µg per animal per day s.c. peritumorally, 5 weeks

## [dF]CY[dW]KVCW-NH2 (cysteine pairing not given here) [RC-160, Somatostatin analogue RC-160]
[1]; [11]
  Reduction in tumour volumes: more than 70%
  Reduction in tumour weights: more than 70%
[1]; SCLC H69 tumours, P<0.01, from start of the experiment
  Time from which tumour growth was significantly inhibited: 14 days
[1]; Table I, Experiment I (SCLC-H69), 5 weeks s.c. peritumoral, RC-160 100 µg/day, RC-3440, RC-3095, RC-3950-II 20 µg/day per animal, control 249.7 ? 182.3, means ? s.d., ten animals per group, *P<0.05 vs control
  Tumour volume, final: 66.0 26.5* (mm)r
[1]; Table I, Experiment I (SCLC-H69), 5 weeks s.c. peritumoral, RC-160 100 µg/day, antagonists 20 µg/day per animal, control 0.27 ? 0.19, means ? s.d., *P<0.05 vs control
  Tumour weight: 0.058 0.04* g
[1]; Table I, Experiment I (SCLC-H69), 5 weeks, RC-160 100 µg/day, antagonists 20 µg/day per animal s.c., control 7.5
  Tumour doubling time: 12.7 days
[1]; s.c. peritumorally, RC-160 100 µg, bombesin/GRP antagonists 20 µg per animal per day, 5 weeks
  Growth of H69 SCLC tumours (in words): inhibited the growth of H69 SCLC xenografts
[2]; Table IV, Experiment I (SCLC-H69), tumour membranes after in vivo treatment, control 278, ten-point displacement in triplicate tubes, done once
  EGF maximal binding capacity (Bmax): 174 fmol mg' protein
[2]; after in vivo treatment
  EGF receptors on H69 tumours (in words): down-regulated
[3]
  Bombesin/GRP maximal binding capacity (Bmax): 435 fmol mg-'protein
Human SCLC cell line H69; "At 0.0 ILg ml-'" RC-160, 5 days of incubation, H69 cells
  Suppression of DNA synthesis: about 43%
Human SCLC cell line H69; RC-160 0.001 to 10.0 µg/ml, 5 days, RC-3005 or RC-3009 5.0 and 25.0 µg/ml, 3 days
  [3H]thymidine incorporation into DNA of H69 cells (in words): significantly inhibited
Human SCLC cell line H69; 0.001 µg/ml, 5 days, *P<0.05 vs control
  [3H]Thymidine incorporation: 81.6 4.6* per cent of control
Human SCLC cell line H69; 0.01 µg/ml, 5 days, *P<0.05 vs control
  [3H]Thymidine incorporation: 80.0 4.1* per cent of control
Human SCLC cell line H69; 0.1 µg/ml, 5 days, **P<0.01 vs control
  [3H]Thymidine incorporation: 71.6 ± 3.4** per cent of control
[4]
  Serum gastrin levels (in words): significantly decreased serum growth hormone and gastrin levels
[5]
  Effect on [3H]thymidine incorporation (in words): inhibitory effect
[6]
  Effect on EGF-stimulated cell growth (in words): reversed the stimulatory effect of EGF
  Effect on EGF-stimulated phosphorylation of the tyrosine kinase domain of the EGF receptors (in words): reversed the stimulatory effect of EGF
[7]
  IGF-I maximal binding capacity (Bmax): 176 fmol mg' protein
[8]; Table IV, Experiment II (non-SCLC H157), tumour membranes after in vivo treatment, control 257, done once
  IGF-I maximal binding capacity (Bmax): 129 fmol mg' protein
[8]; after in vivo treatment
  IGF-I binding sites on H157 tumours (in words): decreased
[9]; Table IV, Experiment II (non-SCLC H157), tumour membranes after in vivo treatment, control 249, done once
  EGF maximal binding capacity (Bmax): 100 fmol mg' protein
[9]; after in vivo treatment
  EGF binding capacity on H157 tumours (in words): decreased
[10]; both experiments, after chronic treatment, vs controls
  Serum GH levels (in words): significantly decreased serum growth hormone and gastrin levels
[10]; mice treated with RC-160 as compared with control mice
  Decrease in serum GH levels: about 48%
